Results as given in ChEMBL document CHEMBL1201862, “PubChem BioAssay data set” (2004).
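These data come from cells grown in 96-well plates and exposed to compound for 48 hours at five concentrations. Abbreviation: GI50, concentration required for 50% inhibition of growth.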 Calls of active or inactive are those of the source. No stated cut-off is given here; in the data, active = GI50 up to about 1.1 µM and inactive = higher.

Tests used:
Assay in all cases: NCI-60 cell line screen, 48 h
HOP-92 = tested on: HOP-92
SK-MEL-28 = tested on: SK-MEL-28
SF-295 = tested on: SF-295
SK-OV-3 = tested on: SK-OV-3
CAKI-1 = tested on: CAKI-1
SN12C = tested on: SN12C
T47D = tested on: T47D
IGROV-1 = tested on: IGROV-1
NCI-H460 = tested on: NCI-H460
A498 = tested on: A498
EKVX = tested on: EKVX
NCI-H522 = tested on: NCI-H522
OVCAR-4 = tested on: OVCAR-4
SR = tested on: SR
DU-145 = tested on: DU-145
M14 = tested on: M14
LOX IMVI = tested on: LOX IMVI
HCC 2998 = tested on: HCC 2998
Malme-3M = tested on: Malme-3M
CCRF-CEM = tested on: CCRF-CEM

Measured: GI50

ON(CCc1ccccn1)Cc1ccccc1
inactive: HOP-92 > 100 µM | SK-MEL-28 > 100 µM | SF-295 > 100 µM | SK-OV-3 > 100 µM | CAKI-1 > 100 µM | SN12C > 100 µM | T47D > 100 µM | IGROV-1 > 100 µM | NCI-H460 > 100 µM | A498 > 100 µM | EKVX > 100 µM | NCI-H522 > 100 µM | OVCAR-4 > 100 µM | SR > 100 µM | DU-145 > 100 µM | M14 > 100 µM | LOX IMVI > 100 µM | HCC 2998 > 100 µM | Malme-3M > 100 µM

O=C(O)c1cccc(C(=O)O)c1[S+]([O-])Cc1ccccc1 (stereo not drawn)
inactive: HOP-92 > 100 µM | SK-MEL-28 > 100 µM | SF-295 > 100 µM | SK-OV-3 > 100 µM | CAKI-1 > 100 µM | SN12C > 100 µM | T47D > 100 µM | IGROV-1 > 100 µM | NCI-H460 > 100 µM | A498 > 100 µM | EKVX > 100 µM | NCI-H522 > 100 µM | OVCAR-4 > 100 µM | SR > 100 µM | DU-145 > 100 µM | M14 > 100 µM | LOX IMVI > 100 µM | HCC 2998 > 100 µM | Malme-3M > 100 µM

COc1ccc(CNc2nc3cc(C(F)(F)F)ccc3nc2C(=O)O)cc1
inactive: HOP-92 20.3 µM | SK-MEL-28 37.3 µM | SF-295 32 µM | SK-OV-3 40.4 µM | CAKI-1 35.8 µM | SN12C 21.4 µM | T47D 25.7 µM | IGROV-1 27.4 µM | NCI-H460 31.4 µM | A498 21.5 µM | EKVX 23.6 µM | CCRF-CEM 27.1 µM | OVCAR-4 32.9 µM | SR 24.5 µM | DU-145 26.7 µM | M14 22.4 µM | LOX IMVI 19.4 µM | HCC 2998 31.6 µM

O=C(CCCl)NN=C1NCCCN1
inactive: HOP-92 > 100 µM | SK-MEL-28 > 100 µM | SF-295 > 100 µM | SK-OV-3 > 100 µM | SN12C > 100 µM | T47D > 100 µM | IGROV-1 > 100 µM | NCI-H460 > 100 µM | A498 > 100 µM | EKVX > 100 µM | CCRF-CEM > 100 µM | NCI-H522 > 100 µM | OVCAR-4 > 100 µM | SR > 100 µM | DU-145 > 100 µM | M14 > 100 µM | LOX IMVI > 100 µM | HCC 2998 > 100 µM | Malme-3M > 100 µM

COc1cc(/N=C\N(C)C)c2ncccc2c1
inactive: HOP-92 32.1 µM | SK-MEL-28 > 100 µM | SF-295 93.3 µM | SK-OV-3 > 100 µM | CAKI-1 86.3 µM | SN12C > 100 µM | T47D 78 µM | IGROV-1 33.9 µM | A498 42.7 µM | EKVX > 100 µM | CCRF-CEM 28 µM | NCI-H522 68.9 µM | OVCAR-4 > 100 µM | SR 1.62 µM | DU-145 > 100 µM | M14 48.8 µM | LOX IMVI 44.4 µM | Malme-3M > 100 µM

C=C(Br)CN(CC(=C)Br)C(C)=O
inactive: SK-MEL-28 > 100 µM | SF-295 > 100 µM | SK-OV-3 > 100 µM | CAKI-1 > 100 µM | SN12C > 100 µM | T47D > 100 µM | IGROV-1 > 100 µM | NCI-H460 > 100 µM | A498 > 100 µM | EKVX > 100 µM | CCRF-CEM > 100 µM | NCI-H522 > 100 µM | OVCAR-4 > 100 µM | SR > 100 µM | DU-145 > 100 µM | M14 > 100 µM | LOX IMVI > 100 µM | HCC 2998 > 100 µM | Malme-3M > 100 µM

COC(=O)[C@]12CC[C@H]3CN(C(=O)OCc4ccccc4)[C@H]([C@H]31)[C@H](c1ccccc1)N2
inactive: HOP-92 72.3 µM | SK-MEL-28 > 100 µM | SF-295 58.1 µM | SK-OV-3 > 100 µM | CAKI-1 70.6 µM | SN12C > 100 µM | T47D 34.3 µM | IGROV-1 > 100 µM | NCI-H460 > 100 µM | A498 80 µM | EKVX 53.5 µM | CCRF-CEM 41.3 µM | NCI-H522 52.1 µM | OVCAR-4 64.7 µM | SR 42.2 µM | DU-145 > 100 µM | M14 70 µM | LOX IMVI > 100 µM | HCC 2998 > 100 µM

O=C(O)[C@@H]1[C@H](C(=O)O)[C@H](C(=O)O)C[C@@H]1C(=O)O
inactive: HOP-92 > 100 µM | SK-MEL-28 > 100 µM | SF-295 > 100 µM | SK-OV-3 > 100 µM | CAKI-1 > 100 µM | SN12C > 100 µM | T47D > 100 µM | IGROV-1 > 100 µM | NCI-H460 > 100 µM | A498 > 100 µM | EKVX > 100 µM | NCI-H522 > 100 µM | OVCAR-4 > 100 µM | SR > 100 µM | DU-145 > 100 µM | M14 > 100 µM | LOX IMVI > 100 µM | Malme-3M > 100 µM

CC12Nc3c(Cl)cc(Cl)cc3N1C(=O)c1ccccc12 (stereo not drawn)
inactive: HOP-92 17.9 µM | SK-MEL-28 > 100 µM | SF-295 > 100 µM | SK-OV-3 > 100 µM | CAKI-1 > 100 µM | SN12C > 100 µM | T47D > 100 µM | IGROV-1 92.3 µM | NCI-H460 95.5 µM | A498 18.5 µM | EKVX 57 µM | CCRF-CEM > 100 µM | NCI-H522 97.1 µM | OVCAR-4 90.2 µM | SR 63.8 µM | DU-145 > 100 µM | LOX IMVI 96.6 µM | HCC 2998 > 100 µM | Malme-3M > 100 µM

CSc1c(C#N)c(N)n(-c2ccc(C)cc2)c(=O)c1C#N
inactive: SK-MEL-28 > 100 µM | SK-OV-3 > 100 µM | CAKI-1 > 100 µM | SN12C > 100 µM | T47D > 100 µM | IGROV-1 > 100 µM | NCI-H460 > 100 µM | A498 50.8 µM | EKVX > 100 µM | CCRF-CEM 94.8 µM | NCI-H522 98.9 µM | OVCAR-4 > 100 µM | SR > 100 µM | DU-145 > 100 µM | M14 > 100 µM | LOX IMVI 88.9 µM | HCC 2998 > 100 µM | Malme-3M > 100 µM

CC(C)[Si]1(C(C)C)OCC2OC(n3ccc(=O)[nH]c3=O)C(O)(CO)C2O[Si](C(C)C)(C(C)C)O1 (stereo not drawn)
inactive: HOP-92 10.5 µM | SK-MEL-28 19.3 µM | SF-295 15 µM | SK-OV-3 16.4 µM | CAKI-1 15.8 µM | SN12C 15.8 µM | T47D 15.1 µM | IGROV-1 11.6 µM | A498 20.7 µM | EKVX 14.2 µM | CCRF-CEM 12.4 µM | OVCAR-4 13.8 µM | SR 12.9 µM | DU-145 18.3 µM | M14 19.1 µM | LOX IMVI 15.8 µM | Malme-3M 15 µM
